“And” between values parts separate entries of the source, which are not always exact repeats. Equal values may be shown once. Read-outs that look alike come from different tables or passages of the source.
Molecular target: C. briggsae complex I (Caenorhabditis briggsae, UniProt A8X476+A8XFG2+Q8HEC4)
Assay: In vitro complex I activity assay, C. briggsae mitochondria
Format: biochemical
Experimental: Mitochondria were isolated from the following free-living nematode strains: C. elegans—N2, CB3474, ECA882, ECA917, ECA1075, ECA1080; C. briggsae—AF16; P. pacificus—PS312; and P. hermaphrodita—B178. With the exception of the P. hermaphrodita strain B178, adult worms of each strain were grown in bulk through liquid culture to obtain mitochondria in sufficient quantities. Due to poor growth in liquid media, mixed stage populations of P. hermaphrodita were washed off and collected from NGM plates seeded with OP50. The isolation of mitochondria from all free-living nematode strains followed the protocol previously outlined in Burns et al.[24]. In brief, a 1 L saturated culture of E. coli HB101 was concentrated 20-fold in 50 mL complete S-medium. ~500,000 L1 worms synchronized from an embryo preparation performed the day prior were added to the S-media/HB101 suspension and grown to adulthood over the course of 3.5 days at 20 °C with shaking at 165 rpm. Following growth, worms were collected in 10 ×15 mL conical tubes and washed 7 times in M9 buffer. Worm suspensions were then combined into a single 15 mL conical tube and diluted to a final volume of 15 mL with M9 buffer. 1 mL aliquots of worm suspension were then distributed to 15 × 1.5 mL screw-cap microcentrifuge tubes and were pelleted at 500 g for 1 min. Excess M9 was aspirated without disturbing the worm pellet. 600 μL ice-cold isolate buffer A (250 mM sucrose, 10 mM Tris (pH 7.5), 1 mM EDTA, 1 mM PMSF (freshly prepared)) and 300 μL cold glass beads were then added to each tube. Tubes were incubated on ice for 10 min, and the worms were then lysed by bead beating (6 x 30 s, with 1 min cooling intervals). Tubes containing worm lysate were centrifuged at 1,000 g for 10 min at 4 °C and the supernatant was transferred to 15 new microcentrifuge tubes on ice. The tubes were centrifuged a second time at 1,000 g for 10 min at 4 °C and the supernatant was once again transferred to 15 new microcentrifuge tubes on ice. These tubes were then centrifuged at 16,000 g for 10 min at 4 °C. The resulting mitochondrial pellet was washed twice by re-suspension in 300 μL of ice-cold isolate buffer B (250 mM sucrose, 10 mM Tris (pH 7.5), 1 mM EDTA). Following the final wash, isolation buffer was aspirated from each tube and the pellets were flash-frozen in ethanol/dry ice and stored at −80 °C until needed.
The enzymatic activities of individual ETC complexes (I-IV) were assessed spectrophotometrically in isolated mitochondria using a Varioskan LUX Multimode plate reader (ThermoFisher Scientific). Mitochondrial pellets previously isolated were thawed on ice and resuspended in ice-cold isolation buffer (250 mM sucrose, 10 mM Tris (pH 7.5), 1 mM EDTA). The BCA assay (Walker, 1994) was used to quantify the protein concentration of mitochondria suspensions; solutions were diluted to a concentration of 0.2 mg/mL for use in all assays. For the complex I assay, mitochondria pellets were freeze-thawed on ice three times to increase enzyme accessibility. […] 20 μL mitochondria suspension was then added/mixed with a pipette to initiate the reaction. Immediately following the addition of mitochondria, absorbance was measured (complex I and II: 600 nm; complex III and IV: 550 nm) in 30 s intervals over 15 min. Enzymatic activity was determined in each reaction by plotting absorbance versus time and calculating the slope of the curve during the initial linear phase of the reaction. […] Percent activity of each complex was calculated by dividing the enzyme-specific activity of each well by the enzyme-specific activity of the corresponding solvent controls.
Chemical solutions were prepared in complex I assay buffer composed of 25 mM KPi buffer (pH 7.5), 3 mg/mL bovine serum albumin (BSA), 80 μM NADH, 60 μM decylubiquinone, 160 μM DCIP, 2 μM antimycin A and 2 mM KCN.
For preliminary screens of hit compounds, compounds were screened at 100 μM; data are the average of at least three biological replicates.

Sequence of C. briggsae complex I (A8X476 31-482): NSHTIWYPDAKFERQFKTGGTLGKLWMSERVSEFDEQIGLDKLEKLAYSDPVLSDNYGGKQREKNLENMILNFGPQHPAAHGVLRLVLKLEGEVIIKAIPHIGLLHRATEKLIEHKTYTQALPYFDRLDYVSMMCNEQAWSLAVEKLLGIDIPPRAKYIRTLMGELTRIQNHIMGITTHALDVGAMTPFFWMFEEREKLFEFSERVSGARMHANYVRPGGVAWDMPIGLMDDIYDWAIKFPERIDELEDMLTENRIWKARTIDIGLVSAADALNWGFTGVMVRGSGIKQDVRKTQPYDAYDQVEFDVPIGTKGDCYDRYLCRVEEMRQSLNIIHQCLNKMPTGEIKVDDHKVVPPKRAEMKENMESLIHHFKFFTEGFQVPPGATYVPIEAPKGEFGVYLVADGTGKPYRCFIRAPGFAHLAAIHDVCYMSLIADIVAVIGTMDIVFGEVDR
Sequence of C. briggsae complex I (A8XFG2 17-199): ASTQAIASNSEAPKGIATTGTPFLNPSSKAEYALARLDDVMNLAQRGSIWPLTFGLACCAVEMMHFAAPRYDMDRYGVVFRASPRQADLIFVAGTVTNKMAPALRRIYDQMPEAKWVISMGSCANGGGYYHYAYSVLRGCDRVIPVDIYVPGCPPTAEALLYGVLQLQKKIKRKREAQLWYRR
Sequence of C. briggsae complex I (Q8HEC4 whole entry): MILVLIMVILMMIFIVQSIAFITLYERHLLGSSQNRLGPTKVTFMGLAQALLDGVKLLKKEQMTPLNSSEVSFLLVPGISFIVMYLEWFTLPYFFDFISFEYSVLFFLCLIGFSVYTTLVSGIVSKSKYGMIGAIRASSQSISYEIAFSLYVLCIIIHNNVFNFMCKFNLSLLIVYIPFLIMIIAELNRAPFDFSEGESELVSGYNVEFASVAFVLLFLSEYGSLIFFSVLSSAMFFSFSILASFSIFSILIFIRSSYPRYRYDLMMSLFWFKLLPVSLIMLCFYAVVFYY

In the case of `Cc1nc2ccccc2n1Cc1ccc(Cl)cc1` [STK697993], the remaining activity at 0.0001 µM (C. briggsae mitochondria, 0.0001 µM, Mean, read-out: in vitro complex I activity relative to solvent control) is reported as 84.5%, the “in vitro complex I activity relative to solvent control” value (C. briggsae mitochondria, 0.0001 µM, single replicate) is reported as 91.655% and 73.328% and the remaining activity at 0.0001 µM (C. briggsae mitochondria, 0.0001 µM, single replicate, read-out: in vitro complex I activity relative to solvent control) is reported as 88.5%. For the same molecule, the remaining activity at 0.0005 µM (C. briggsae mitochondria, 0.0005 µM, Mean, read-out: in vitro complex I activity relative to solvent control) was 92.6%, the “in vitro complex I activity relative to solvent control” value (C. briggsae mitochondria, 0.0005 µM, single replicate) was 92.151% and 96.046% and the remaining activity at 0.0005 µM (C. briggsae mitochondria, 0.0005 µM, single replicate, read-out: in vitro complex I activity relative to solvent control) was 89.6%. For the same molecule, the remaining activity at 0.001 µM (C. briggsae mitochondria, 0.001 µM, Mean, read-out: in vitro complex I activity relative to solvent control) was 98.3%, the “in vitro complex I activity relative to solvent control” value (C. briggsae mitochondria, 0.001 µM, single replicate) was 98.678% and 90.340% and the remaining activity at 0.001 µM (C. briggsae mitochondria, 0.001 µM, single replicate, read-out: in vitro complex I activity relative to solvent control) was 106%. The remaining activity at 0.0025 µM (C. briggsae mitochondria, 0.0025 µM, Mean, read-out: in vitro complex I activity relative to solvent control) was 104%, the “in vitro complex I activity relative to solvent control” value (C. briggsae mitochondria, 0.0025 µM, single replicate) was 101.880% and 103.212% and the remaining activity at 0.0025 µM (C. briggsae mitochondria, 0.0025 µM, single replicate, read-out: in vitro complex I activity relative to solvent control) was 106%. For the same molecule, the remaining activity at 0.005 µM (C. briggsae mitochondria, 0.005 µM, Mean, read-out: in vitro complex I activity relative to solvent control) was 99.2%, the “in vitro complex I activity relative to solvent control” value (C. briggsae mitochondria, 0.005 µM, single replicate) was 95.872% and 91.749% and the remaining activity at 0.005 µM (C. briggsae mitochondria, 0.005 µM, single replicate, read-out: in vitro complex I activity relative to solvent control) was 110%. For the same molecule, the remaining activity at 0.013 µM (C. briggsae mitochondria, 0.013 µM, Mean, read-out: in vitro complex I activity relative to solvent control) was 91%, the “in vitro complex I activity relative to solvent control” value (C. briggsae mitochondria, 0.013 µM, single replicate) was 83.705% and 87.377% and the remaining activity at 0.013 µM (C. briggsae mitochondria, 0.013 µM, single replicate, read-out: in vitro complex I activity relative to solvent control) was 102%. The remaining activity at 0.025 µM (C. briggsae mitochondria, 0.025 µM, Mean, read-out: in vitro complex I activity relative to solvent control) was 82.5%, the “in vitro complex I activity relative to solvent control” value (C. briggsae mitochondria, 0.025 µM, single replicate) was 95.007% and 79.112% and 73.336% and the remaining activity at 0.063 µM (C. briggsae mitochondria, 0.063 µM, Mean, read-out: in vitro complex I activity relative to solvent control) was 54.5%. The “in vitro complex I activity relative to solvent control” value (C. briggsae mitochondria, 0.063 µM, single replicate) was 60.174% and 66.771% and 36.409%, the remaining activity at 0.125 µM (C. briggsae mitochondria, 0.125 µM, Mean, read-out: in vitro complex I activity relative to solvent control) was 33.3% and the “in vitro complex I activity relative to solvent control” value (C. briggsae mitochondria, 0.125 µM, single replicate) was 36.143% and 47.895% and 15.798%. The remaining activity at 0.313 µM (C. briggsae mitochondria, 0.313 µM, Mean, read-out: in vitro complex I activity relative to solvent control) was 12.2%, the “in vitro complex I activity relative to solvent control” value (C. briggsae mitochondria, 0.313 µM, single replicate) was 16.180% and 20.382% and 0.000% and the remaining activity at 0.625 µM (C. briggsae mitochondria, 0.625 µM, Mean, read-out: in vitro complex I activity relative to solvent control) was 5.29%. For the same molecule, the “in vitro complex I activity relative to solvent control” value (C. briggsae mitochondria, 0.625 µM, single replicate) was 0.000% and 15.885%, the remaining activity at 1.5 µM (C. briggsae mitochondria, 1.5 µM, Mean, read-out: in vitro complex I activity relative to solvent control) was 3.62% and the “in vitro complex I activity relative to solvent control” value (C. briggsae mitochondria, 1.5 µM, single replicate) was 0.000% and 10.874%. For the same molecule, the remaining activity at 3 µM (C. briggsae mitochondria, 3 µM, Mean, read-out: in vitro complex I activity relative to solvent control) was 5.17%, the “in vitro complex I activity relative to solvent control” value (C. briggsae mitochondria, 3 µM, single replicate) was 0.000% and 15.522% and the remaining activity at 15 µM (C. briggsae mitochondria, 15 µM, Mean, read-out: in vitro complex I activity relative to solvent control) was 7.49%. For the same molecule, the “in vitro complex I activity relative to solvent control” value (C. briggsae mitochondria, 15 µM, single replicate) was 0.019% and 20.437% and 1.999%, the remaining activity at 37.5 µM (C. briggsae mitochondria, 37.5 µM, Mean, read-out: in vitro complex I activity relative to solvent control) was 5.41% and the “in vitro complex I activity relative to solvent control” value (C. briggsae mitochondria, 37.5 µM, single replicate) was 0.000% and 16.226%. The remaining activity at 75 µM (C. briggsae mitochondria, 75 µM, Mean, read-out: in vitro complex I activity relative to solvent control) was 4.07%, the “in vitro complex I activity relative to solvent control” value (C. briggsae mitochondria, 75 µM, single replicate) was 3.330% and 6.641% and 2.225% and the IC50 (purified mitochondria) was 73.7 nM.

Source: PMC11079024, “Identification of a family of species-selective complex I inhibitors as potential anthelmintics” (Nature Communications, 2024)
